Experimental data reported in patent US9108950B2, “1-pyrazolyl-3-(4-((2-anilinopyrimidin-4-yl)oxy)napththalen-1-yl) ureas as p38 MAP kinase inhibitors” (Respivert Ltd., priority 2011, dated 2015).

Key:
[1] = test system: Differentiated U937 cells; test: Cell viability: MTT assay; format: cell-based, human; details: 1 μg/mL
Procedure: Differentiated U937 cells were pre-incubated with each test compound (final concentration 1 μg/mL or 10 μg/mL in 200 μL media indicated below) under two protocols: the first for 4 hr in 5% FCS RPMI1640 media and the second in 10% FCS RPMI1640 media for 24 h. The supernatant was replaced with new media (200 μL) and MTT stock solution (10 μL, 5 mg/mL) was added to each well. After incubation for 1 hr the media were removed, DMSO (200 μL) was added to each well and the plates were shaken lightly for 1 hr prior to reading the absorbance at 550 nm. The percentage loss of cell viability was calculated for each well relative to vehicle (0.5% DMSO) treatment. Consequently an apparent increase in cell viability for drug treatment relative to vehicle is tabulated as a negative percentage.

[2] = test system: LPS-induced neutrophil accumulation; test: LPS-induced neutrophil accumulation in mice; format: in vivo, Balb/c mice
Procedure: […] At T=0, mice were placed into an exposure chamber and exposed to LPS (7.0 mL, 0.5 mg/mL solution in PBS) for 30 min). After a further 8 hr the animals were anesthetized, their tracheas cannulated and BALF extracted by infusing and then withdrawing from their lungs 1.0 mL of PBS via the tracheal catheter. Total and differential white cell counts in the BALF samples were measured using a Neubaur haemocytometer. Cytospin smears of the BALF samples were prepared by centrifugation at 200 rpm for 5 min at RT and stained using a DiffQuik stain system (Dade Behring). Cells were counted using oil immersion microscopy. Data for neutrophil numbers in BAL are shown as mean±S.E.M. (standard error of the mean). The percentage inhibition of neutrophil accumulation was calculated for each treatment relative to vehicle treatment.

Cigarette Smoke Model = test: Cigarette smoke model; format: in vivo, A/J mice
Procedure: A/J mice (males, 5 weeks old) were exposed to cigarette smoke (4% cigarette smoke, diluted with air) for 30 min/day for 11 days using a Tobacco Smoke Inhalation Experiment System for small animals (Model SIS-CS; Sibata Scientific Technology, Tokyo, Japan). […] At 12 hr after the last dosing, each of the animals was anesthetized, the trachea cannulated and bronchoalveolar lavage fluid (BALF) was collected. The numbers of alveolar macrophages and neutrophils were determined by FACS analysis (EPICS® ALTRA II, Beckman Coulter, Inc., Fullerton, Calif., USA) using anti-mouse MOMA2 antibody (macrophage) or anti-mouse 7/4 antibody (neutrophil). BALF was centrifuged and the supernatant was collected. The level of keratinocyte chemoattractant (KC; CXCL1) in BALF was quantitated using a Quentikine® mouse KC ELISA kit (R&D systems, Inc., Minneapolis, Minn., USA).

Dynamic vapour sorption = format: physicochemical; details: form B micronized
Procedure: Plots were obtained using a Surface Measurement Systems dynamic vapor sorption model DVS-1 using about 10 mg of the sample. The weight change was recorded with respect to atmospheric humidity at 25° C. and was determined using the following parameters: drying: 60 min under dry nitrogen; equilibrium: 60 min/step; data interval: 0.05% or 2.0 min. The relative humidity [RH %] measurement points were as follows:
The DVS isotherm plot for the micronized reference sample is illustrated in FIG. 4 and the DVS change in mass plot for the micronized reference sample is illustrated in FIG. 5. […] The product adsorbed up to 0.4% moisture depending on the atmospheric humidity.

[3] = Chemical stability by HPLC; format: physicochemical; details: form B micronized
Procedure: Analyses were carried out on a Waters Xbridge C18 column (3.0×150 mm; 3.5 μm) using the following operating conditions: column temperature: 40° C.; sample temperature: 5° C.; flow rate: 0.45 mL/min; injection volume: 7 μL; UV detection at 260 nm; mobile phase composition comprised of Phase A: 10 mM ammonium acetate+0.1%, v/v trifluoroacetic acid in water and Phase B: acetonitrile, using the gradient defined by the parameters below (Table 2).
The reference and comparative samples were then analyzed by HPLC using the method described in General Procedures and by visual inspection.

[4] = 0.05 mg/mL intra tracheal, 2 hr pre-dose

**Q.** What does the source list for Cc1ccc(-n2nc(C(C)(C)C)cc2NC(=O)Nc2ccc(Oc3ccnc(Nc4ccccc4)n3)c3ccccc23)cc1 [Compound (I), 1-(3-(tert-Butyl)-1-(p-tolyl)-1H-pyrazol-5-yl)-3-(4-((2-(phenylamino)pyrimidin-4-yl)oxy)naphthalen-1-yl)urea]?
**A.** MTT Assay Cell viability in d-U937 Cells ([1]; 4 h): −ve (−ve and +ve indicate the value is below and above respectively, the no significant effect threshold defined as 30% inhibition at 1 μg/mL at the time point indicated.); MTT Assay Cell viability in d-U937 Cells ([1]; 24 h): −ve (−ve and +ve indicate the value is below and above respectively, the no significant effect threshold defined as 30% inhibition at 1 μg/mL at the time point indicated.); % inhibition of neutrophil accumulation [2, 4]: 18%; Neutrophil numbers in BALF [2, 4]: 15.6 ± 2.1 ×10^5/mL; % inhibition of neutrophil accumulation ([2]; 0.2 mg/mL, 2 hr pre-dose): 48%; Neutrophil numbers in BALF ([2]; 0.2 mg/mL, 2 hr pre-dose): 9.8 ± 1.6 ×10^5/mL; % inhibition of neutrophil accumulation ([2]; 1.0 mg/mL, 2 hr pre-dose): 77%; Neutrophil numbers in BALF ([2]; 1.0 mg/mL, 2 hr pre-dose): 4.4 ± 0.89 ×10^5/mL; % inhibition of neutrophil accumulation ([2]; 1.0 mg/mL, 8 hr pre-dose): 48%; Neutrophil numbers in BALF ([2]; 1.0 mg/mL, 8 hr pre-dose): 9.9 ± 1.8 ×10^5/mL; % inhibition of neutrophil accumulation ([2]; 1.0 mg/mL, 12 hr pre-dose): 4%; Neutrophil numbers in BALF ([2]; 1.0 mg/mL, 12 hr pre-dose): 18.3 ± 2.3 ×10^5/mL; duration of action (time course experiment) ([2]; mice): long duration of action; effect on LPS-induced neutrophil accumulation ([2]; mice): dose dependent inhibition; CXCL1 in BALF % inhibition (Cigarette Smoke Model; 0.32 μg/mL): 0%; Macrophage % inhibition (Cigarette Smoke Model; 0.32 μg/mL): 11%; Neutrophil % inhibition (Cigarette Smoke Model; 0.32 μg/mL): 12%; Neutrophil cell numbers in BALF (Cigarette Smoke Model; 0.32 μg/mL): 12.4 ± 0.32 × 10^4/mL; Macrophage cell numbers in BALF (Cigarette Smoke Model; 0.32 μg/mL intra-nasal, tobacco smoke): 13.3 ± 0.20 × 10^4/mL; CXCL1 in BALF (Cigarette Smoke Model; 0.32 μg/mL, tobacco smoke): 13.6 ± 1.69 pg/mL; CXCL1 in BALF (Cigarette Smoke Model; 1.6 μg/mL): 12.2 ± 0.96 pg/mL; CXCL1 in BALF % inhibition (Cigarette Smoke Model; 1.6 μg/mL): 26%; Macrophage % inhibition (Cigarette Smoke Model; 1.6 μg/mL): 28%; Macrophage cell numbers in BALF (Cigarette Smoke Model; 1.6 μg/mL): 11.6 ± 0.42 × 10^4/mL; Neutrophil % inhibition (Cigarette Smoke Model; 1.6 μg/mL): 29%; Neutrophil cell numbers in BALF (Cigarette Smoke Model; 1.6 μg/mL): 10.5 ± 0.06 × 10^4/mL; CXCL1 in BALF (Cigarette Smoke Model; 8.0 μg/mL): 11.4 ± 0.15 pg/mL; CXCL1 in BALF % inhibition (Cigarette Smoke Model; 8.0 μg/mL): 41%; Macrophage % inhibition (Cigarette Smoke Model; 8.0 μg/mL): 43%; Macrophage cell numbers in BALF (Cigarette Smoke Model; 8.0 μg/mL): 10.1 ± 0.42 × 10^4/mL; Neutrophil % inhibition (Cigarette Smoke Model; 8.0 μg/mL): 41%; Neutrophil cell numbers in BALF (Cigarette Smoke Model; 8.0 μg/mL): 9.1 ± 0.28 × 10^4/mL; CXCL1 in BALF (Cigarette Smoke Model; 40 μg/mL): 9.5 ± 0.84 pg/mL; CXCL1 in BALF % inhibition (Cigarette Smoke Model; 40 μg/mL): 76%; Macrophage % inhibition (Cigarette Smoke Model; 40 μg/mL): 64%; Macrophage cell numbers in BALF (Cigarette Smoke Model; 40 μg/mL): 7.9 ± 0.20 × 10^4/mL; Neutrophil % inhibition (Cigarette Smoke Model; 40 μg/mL): 52%; Neutrophil cell numbers in BALF (Cigarette Smoke Model; 40 μg/mL): 7.9 ± 0.34 × 10^4/mL; effect on cigarette smoke induced CXCL1 (KC) production in BALF (Cigarette Smoke Model; mice): inhibited; effect on macrophage and neutrophil accumulation in BALF induced by cigarette smoke (Cigarette Smoke Model; mice): dose-dependent inhibition; hygroscopic behavior (DVS) (Dynamic vapour sorption): no hygroscopic behavior; moisture adsorbed (DVS) (Dynamic vapour sorption; depending on atmospheric humidity, 25° C.): up to 0.4%; chemical stability [3]: chemically stable; sensitivity to light [3]: some sensitivity to light was observed; Appearance ([3]; 40° C./75% RH, 1 week): off-white; Sum of impurities by HPLC ([3]; 40° C./75% RH, 1 week): 0.66%; Appearance ([3]; 40° C./75% RH, 4 weeks): off-white; Sum of impurities by HPLC ([3]; 40° C./75% RH, 4 weeks): 0.68%; Appearance ([3]; 50° C., 1 week): off-white; Sum of impurities by HPLC ([3]; 50° C., 1 week): 0.69%; Appearance ([3]; 50° C., 4 weeks): off-white; Sum of impurities by HPLC ([3]; 50° C., 4 weeks): 0.66%; Appearance ([3]; 70° C./75% RH, 1 week): off-white; Sum of impurities by HPLC ([3]; 70° C./75% RH, 1 week): 0.73%; Appearance ([3]; 80° C., 1 week): off-white; Sum of impurities by HPLC ([3]; 80° C., 1 week): 0.73%; Appearance ([3]; 0.3 day, ICH light): off-white; Sum of impurities by HPLC ([3]; 0.3 day, ICH light (700 W/m^2)): 1.44%; Appearance ([3]; RT/56% RH, 4 weeks): off-white; Sum of impurities by HPLC ([3]; RT/56% RH, 4 weeks): 0.67%; Appearance ([3]; RT/75% RH, 4 weeks): off-white; Sum of impurities by HPLC ([3]; RT/75% RH, 4 weeks): 0.67%; Appearance ([3]; RT/<5% RH, 4 weeks): off-white; Sum of impurities by HPLC ([3]; RT/<5% RH, 4 weeks): 0.67%; Appearance ([3]; T = zero): off-white; Sum of impurities by HPLC ([3]; T = zero): 0.66%
